Patent US9828333B2, “Compounds for the treatment of influenza” (CHRISTIAN-ALBRECHTS-UNIVERSITAT ZU KIEL, priority 2011, dated 2017)
Where two headings read alike, the source gives them in different places.

Columns and labels:
[1] = molecular target: neuraminidase of influenza A virus A/Jena/5258/2009 (H1N1-subtype) (Influenza A virus, UniProt A0A088CA11); assay: biochemical
physchem = format: physicochemical; conditions: aqueous buffer, thermodynamic from solid
Experimental: 2. Solubility Assays of the Compounds Tested
Determining the Solubility at Different pH Values:
Therefor, a few mg of the compounds were weighed and mixed with the volume of 50 mM KH2PO4 buffer of respective pH value for a 50 mM solution. […] Subsequently, the undissolved portion was removed by centrifugation at 10.000 rpm for 15 min, and the concentration in the supernatant was determined by HPLC.

[2] = test system: influenza A virus A/Jena/5258/2009 (pandemic H1N1; oseltamivir-sensitive); format: cell-based
in vitro = in vitro ADME; conditions: human plasma instead of the 4% albumin solution; read-out: Protein binding (converted)
Experimental: . Therefor, human plasma was used instead of the 4% albumin solution. […]. The values are as expected somewhat higher than the values obtained with the 4% albumin solution and are to be traced back to the presence of other plasma proteins (e.g. α1-acidic glycoprotein) in addition to albumin.
(§1) The plasma protein binding was carried out in three different concentrations (10, 25, and 50 μM). A 4% albumin solution was used as protein solutions. In each case, 50 μl of a 10-fold concentrated substance solution were pipetted in 450 μl of the protein solution. The incubation was carried out for 15 minutes in the shaking water bath at 37° C. Subsequently, the samples were transferred in ultra-filtration units (Vivaspin 500, 10 kDa cut-off) and centrifuged for 15 min at 10.000 rpm. The filtrate was analyzed by HPLC. In addition, a control was run for each concentration, which was not treated with protein and not centrifuged.
. Therefor, instead of the 4% albumin solution, human plasma was used. […]. As anticipated, the values are somewhat higher than the values obtained with the 4% albumin solution and are due to the presence of other plasma proteins (e.g., α1-acidic glycoprotein) besides the albumin.

albumin = albumin (Homo sapiens, UniProt P02768); format: in vitro ADME; conditions: 4% albumin solution, average of three concentrations (10, 25, 50 μM)
Sequence of albumin (P02768 25-609): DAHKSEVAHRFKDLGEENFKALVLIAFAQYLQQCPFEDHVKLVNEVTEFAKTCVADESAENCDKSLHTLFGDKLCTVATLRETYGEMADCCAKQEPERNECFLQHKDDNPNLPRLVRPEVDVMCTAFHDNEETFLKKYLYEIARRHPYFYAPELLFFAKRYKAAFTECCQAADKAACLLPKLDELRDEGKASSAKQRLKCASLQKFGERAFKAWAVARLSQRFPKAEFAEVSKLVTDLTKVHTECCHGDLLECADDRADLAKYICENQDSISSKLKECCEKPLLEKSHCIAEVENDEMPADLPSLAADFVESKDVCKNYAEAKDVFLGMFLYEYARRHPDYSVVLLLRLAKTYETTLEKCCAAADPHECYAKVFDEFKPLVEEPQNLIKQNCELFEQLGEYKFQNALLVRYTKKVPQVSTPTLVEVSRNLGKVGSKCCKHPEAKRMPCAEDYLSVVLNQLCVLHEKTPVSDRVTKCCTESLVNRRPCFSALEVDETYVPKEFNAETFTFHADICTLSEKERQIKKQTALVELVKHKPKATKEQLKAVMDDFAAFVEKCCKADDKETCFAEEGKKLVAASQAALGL
Experimental: 3. Determination of Protein Binding of the Amidine Effective Form (3) as Well as of Prodrugs Thereof (2, 4) and of the Guanidine Effective Form (9) as Well as of Prodrugs Thereof (6, 10)
as §1

[3] = test system: influenza A virus A/Jena/5258/2009; assay: microbe, parasite or virus in culture; format: cell-based, influenza A virus H1N1; conditions: Influenza A virus, MDCK, read-out: 50% inhibitory concentration, A/Jena/5258/2009
[4] = test system: influenza A virus A/342/2009; assay: microbe, parasite or virus in culture; format: cell-based, influenza A virus H1N1; conditions: for IC50: read-out: 50% inhibitory concentration, A/342/2009
in vivo = conditions: rat; for Plasma level of derivative 9 (Conc.): intravenous administration of derivative 9, 10 mg/kg
Experimental: Sprague Dawley (SD) rats were supplied for habitation 10 days before the start of the experiment, weighing ˜300-350 g and kept in an air conditioned room with a constant temperature of 20° C. and a humidity of 50%. In this room there was a day-night rhythm of twelve hours. The dark phase began daily at 18 o'clock and turned over to the light phase at 6 clock. The rats were kept over the acclimatization period in standard cages of the size 3 (length: 42 cm, width 26 cm, height: 15 cm) and transferred three days before commencement of an experiment into a special experimental room, placed in the identical environmental conditions. They received a maintenance diet (maintenance diet for rats and mice; No. 1320; Altromin) and tap water ad libitum.
A catheter was implanted in the vein as well as in the arteria femoralis of rats receiving an i.v. administration. Rats receiving only oral administration of substances received a […] catheter only.
The catheterized animals were kept after surgery for a day in the experimental room and individually in their experimental cages. The application of the test compounds was carried out on the second day after the operation. On the experimental day, the rats were weighed one hour prior to the test and the arterial catheter was flushed with 300 μl of heparin solution. Subsequently, the i.v. or oral administration of the compounds was carried out.
The oral administrations were performed as a suspension or solution made with gum arabic (10% w/v) by gavage.
The oral administrations were made as suspension or solution with gum arabic (10% w/v) by gavage.
After i.v. administration, plasma samples were taken at 5, 10, 20, 45, 90, 150, 240 and 360 min, respectively after oral administration after 30, 60, 90, 120, 180, 240 and 360 min. To this, in each case 300 μl of whole blood were taken using an insulin syringe and transferred into EDTA-coated Microvettes CB 300 (Sarstedt, Nümbrecht). After each withdrawal it was rinsed with 100 μl 0.9% saline or every 60 min with heparin solution (250 IU/ml). The blood sample was shaken briefly and put until centrifugation (4° C.; 14000 U/min; 10 min) on ice. Subsequently, the samples were frozen at −80° C.
The plasma samples were processed and analyzed by HPLC. Therefor, the plasma samples were thawed at room temperature. In each case, 80 μl methanol (+0.2% TFA) were prepared and subsequently 80 μl of the plasma samples were pipetted into. The samples were shaken for 45 min to precipitate plasma proteins. The samples were frozen at −80° C., thawed and shaken for another 15 min. The samples were centrifuged for 15 min at 13.000 RPM and the supernatant was transferred into HPLC vials. In each case 50 μl were used for the determinations by LC/MS.
The animal studies were evaluated using the following LC/MS method.

[5] = format: in vitro ADME, human; conditions: 37° C., up to 120 min
Experimental: (§2) In addition, the substances were tested in human and murine plasma. Therefor, 630 μl of the plasma as mixed with 70 μl of a 2 mM stock solution of each compound in 10 mM phosphate buffer pH 7.4. The incubations were performed in a shaking water bath at 37° C. The incubation was terminated at the times 15, 30, 45, 60, 90 and 120 min by removal of 100 μl sample and addition of 100 μl acetonitrile. The samples were centrifuged (12,000 rpm/10 min) and the supernatant surveyed by HPLC.
(§3) The stability studies were analyzed using the following HPLC method.

[6] = format: physicochemical; conditions: 0.2 mg/ml, pH 7.4 at RT and 4° C. or Aqua bidest at 4° C., 14 days
Experimental: The storage stability in solution was determined at a concentration of 0.2 mg/ml. Therefor, a compound was dissolved in 50 mM KH2PO4 buffer, pH 7.4 respectively Aqua bidest and stored at RT (pH 7.4) or in a refrigerator at 4° C. (pH 7.4 respectively Aqua bidest) over the test period. The concentration of the active form was determined after 12 h, 1 d, 2 d, 4 d, 7 d and 14 d by HPLC.
Stability Studies for the Amidine Effective Form (3) and Guanidine Effective Form (9) Over 2 Weeks Studies at pH 7.4:
The storage stability in dissolved form was determined at a concentration of 0.2 mg/ml. For this purpose, the compound was dissolved in 50 mM KH2PO4 buffer pH 7.4 or in aqua bidest and stored for the investigation period at RT (pH 7.4) or in a refrigerator at 4° C. (pH 7.4 or aqua bidest). The concentration of the effective form was determined by HPLC after 12 h, 1 d, 2 d, 4 d, 7 d and 14 d.

[7] = format: in vitro ADME, murine; conditions: 37° C., up to 120 min
Experimental: as §2, §3

[8] = rat, in vivo; cited from earlier work
[9] = Sprague Dawley, in vivo, iv, 10 mg/kg
[10] = Sprague Dawley, in vivo, po, 50 mg/kg

SMILES: CCC(CC)O[C@@H]1C=C(C(=O)O)C[C@H](NC(C)=N)[C@H]1NC(C)=O [Compound 3]
- IC50 [1]: 0.0001 µM
- solubility at 30 min (physchem): > 50 mM
- 90% inhibitory concentration, A/Jena/5258/2009 [2]: 0.001 (0.011) μM
- 95% inhibitory concentration (values in parentheses), A/Jena/5258/2009 [2]: 0.001 (0.011) μM
- fraction unbound (in vitro): 0.963
- Protein binding (albumin): 2.2 ± 1.5%
- IC50 [3]: 2 µM
- IC50 ([4]; Influenza A virus, MDCK): 12.2 µM
- IC50 [4]: 12.1 µM
- Bioavailability (in vivo; [9]): 100%
- MRT (in vivo; [9]): 0.587 h
- half-life (in vivo; [9]): 0.642 h
- half-life (in vivo; Sprague Dawley, in vivo, po): ~1.87 h
- Bioavailability (in vivo; [10]): 3.0%
- MRT (in vivo; [10]): 1.867 h
- cmax (in vivo; [10]): 0.7 µg/mL
- Plasma level of derivative 3 (Conc.) after oral administration of the labelled derivative (in vivo; Sprague Dawley, in vivo, po, 50 mg/kg, 0 min): 0.00 µM
- Plasma level of derivative 3 (Conc.) after oral administration of the labelled derivative (in vivo; Sprague Dawley, in vivo, po, 50 mg/kg, 30 min): 1.63 µM
- Plasma level of derivative 3 (Conc.) after oral administration of the labelled derivative (in vivo; Sprague Dawley, in vivo, po, 50 mg/kg, 60 min): 1.59 µM
- Plasma level of derivative 3 (Conc.) after oral administration of the labelled derivative (in vivo; Sprague Dawley, in vivo, po, 50 mg/kg, 90 min): 1.50 µM
- Plasma level of derivative 3 (Conc.) after oral administration of the labelled derivative (in vivo; Sprague Dawley, in vivo, po, 50 mg/kg, 120 min): 1.25 µM
- Plasma level of derivative 3 (Conc.) after oral administration of the labelled derivative (in vivo; Sprague Dawley, in vivo, po, 50 mg/kg, 180 min): 0.61 µM
- Plasma level of derivative 3 (Conc.) after oral administration of the labelled derivative (in vivo; Sprague Dawley, in vivo, po, 50 mg/kg, 240 min): 0.30 µM
- Plasma level of derivative 3 (Conc.) after oral administration of the labelled derivative (in vivo; Sprague Dawley, in vivo, po, 50 mg/kg, 360 min): 0.04 µM
- AUC (in vivo; Iv, 10 mg/kg, active form 3 in plasma): 576.8

SMILES: CCC(CC)O[C@@H]1C=C(C(=O)O)C[C@H](NC(=N)N)[C@H]1NC(C)=O [Compound 9, (3R,4R,5S)-4-acetamido-5-(N-guanidino)-3-(1-ethylpropoxy)cyclohex-1-en-1-carboxylic acid]
- Stability/metabolism by plasma enzymes in human plasma [5]: not metabolized
- 90% inhibitory concentration, A/Jena/5258/2009 [2]: 0.002 (0.003) μM
- 95% inhibitory concentration (values in parentheses), A/Jena/5258/2009 [2]: 0.002 (0.003) μM
- fraction unbound (in vitro): 0.914
- Protein binding (albumin): 0.4 ± 2.8%
- Storage stability in solution [6]: stable
- IC50 [3]: 1.1 µM
- IC50 ([4]; Influenza A virus, MDCK): 4.1 µM
- Stability/metabolism by plasma enzymes in murine plasma [7]: not metabolized
- AUC (in vivo; [9]): 4.88 µg·h/mL
- Bioavailability (in vivo; [9]): 100%
- MRT (in vivo; [9]): 0.902 h
- half-life (in vivo; [9]): 2 h
- half-life (in vivo; Sprague Dawley, in vivo, po): ~1.63 h
- Plasma level of derivative 9 (Conc.) (in vivo; time 5): 23.71 µM
- Plasma level of derivative 9 (Conc.) (in vivo; time 10): 18.30 µM
- Plasma level of derivative 9 (Conc.) (in vivo; time 20): 12.67 µM
- Plasma level of derivative 9 (Conc.) (in vivo; time 45): 5.05 µM
- Plasma level of derivative 9 (Conc.) (in vivo; time 90): 1.67 µM
- Plasma level of derivative 9 (Conc.) (in vivo; time 150): 0.54 µM
- Plasma level of derivative 9 (Conc.) (in vivo; time 240): 0.23 µM
- Plasma level of derivative 9 (Conc.) (in vivo; time 360): 0.11 µM

SMILES: CCOC(=O)C1=C[C@@H](OC(CC)CC)[C@H](NC(C)=O)[C@@H](N)C1 [Oseltamivir, (3R,4R,5S)-4-acetamido-5-amino-3-(1-ethylpropoxy)cyclohex-1-en-1-carboxylic acid ethyl ester, reference compound]
- IC50 [1]: 0.0001 µM
- 90% inhibitory concentration, A/Jena/5258/2009 [2]: 0.016 (0.021) μM
- 95% inhibitory concentration (values in parentheses), A/Jena/5258/2009 [2]: 0.016 (0.021) μM
- IC50 [3]: 13.2 µM
- plasma half-life period [8]: 0.733 h
- 50% inhibitory concentration, A/342/2009 [4]: resistant
